Measurements: patent US20210388012A1, “METHODS AND COMPOSITIONS FOR PRODRUG FORMS OF SPECTINOMYCIN AND SPECTINAMIDE ANALOGS” (priority 2018, published 2021)

Test: Pharmacokinetic study in rat
Assay type: in vivo, Sprague-Dawley rats
Conditions: intravenous
Protocol: LC-MS Method 1. Quantitative determination of the amount of a disclosed compound present in blood, plasma, or urinary can be determined by LC-MS/MS methods. Briefly, a suitable method involves use of calibrants (0.976, 1.95, 3.91, 7.81, 15.63, 31.25, 62.5, 125, 250, 500, 1000 ng/mL) were in sample matrix (e.g., rat plasma, blood or urine). A separate solution of disclosed compound (independent of calibrants) is used to prepare quality controls. Appropriate volumes of working solutions are added to the sample matrix to yield the final concentrations of 1, 50, 1000 ng/mL. Linearity for calibrants in duplicate is assessed by subjecting the spiked concentrations and the respective peak areas to least-square linear regression analysis with and without intercepts, and a weighted least-square regression (1/x or 1/x^2). The lowest limit of quantitation (LLOQ) in the standard curve measured with acceptable accuracy and precision for a disclosed compound from rat plasma has been previously established as 0.976 ng/mL for a representative compound, 1810. All samples are precipitated by the addition of 4-volumes (100 μL) of IS, 1369 (10 ng/mL) in methanol to a volume (25 μL) of plasma/urine test sample. The samples are vortexed (Fisher scientific, USA) for 30 sec and centrifuged at 10,000×g for 10 min at 4° C. and the supernatants are collected for LC-MS/MS analysis. Chromatographic separation is carried out using a Shimadzu Nexera XR (LC-20ADXR) liquid chromatograph (Shimadzu Corporation, USA) consisting of two pumps, online degasser, system controller and an auto sampler. Mobile phase consisting of a) water with 1.6% nonafluoropentanoic acid and 0.7% formic acid b) 90% acetonitrile with 0.8% nonafluoropentanoic acid and 0.35% formic acid can be used at a flow rate of 0.5 rnLirnin in gradient mode. A Waters® Symmetry ® 3.5μ C8, 50×2.1 mm column (Waters, Milford, Mass.) is used for the separation. Samples (5 μL) are injected on column and the eluate is provided directly to an API 5500 triple quadruple mass spectrometer (Applied Biosystems, Foster City, Calif.) equipped with a turbospray ion source operated in the positive ion mode. The optimized multiple reactions monitoring (MRM) conditions for 3408 (549.2A207.1), 1810 (469.2^207.1) and IS (418.3^207.1) are monitored with a declustering potential of 45 V and collision energy of 25 eV. Data are acquired and processed with Analyst software version 1.6.2 (Applied Biosystems, Foster City, Calif.).
Pharmacokinetic assessment of the disclosed compounds can be determined in a rat model as described herein. Briefly, catheterized male Sprague-Dawley rats from Harlan Bioscience (Indianapolis, Ind.), weighing 200-250 g, are kept at a 12 h light/dark cycle with access to food and water ad libitum. The procedures are approved by the Institutional Animal Care and Use Committee of the University of Tennessee Health Science Center. Formulations of a disclosed compound are prepared in water (50%) and PlasniaLyte A (50%). Test compound can be administered either via intravenous route (10 mg/kg) via femoral vein catheter with the study conducted using a group of 6 rats. Blood (250 μL) was collected via the jugular vein catheter at 0.08, 0.25, 0.5, 0.75, 1, 1.5, 2, 4, 6, 8, 10, 24 and 48 h after drug administration. Plasma was immediately separated by centrifugation (6,000×g for 10 min at 4° C.) and stored at −70° C. until analysis. The plasma concentration was determined as described herein above in LC-MS Method 1, and plasma concentration-time courses were fitted to a non-compartmental model using Phoenix WinNonlin 7.0 (Certara L. P., Princeton, NJ). Area under the concentration-time profile curve (AUC) was calculated by the log trapezoidal rule by log-linear regression and extrapolated to infinity by addition of the value Ct/λZ, where Ct is the concentration at the last time point, and λZ the terminal slope (determined by linear regression) of the log concentration-time curve. […]

In the case of CN[C@@H]1[C@H](O)[C@H](NC)[C@H]2O[C@]3(O)[C@H](O[C@@H]2[C@H]1O)O[C@H](C)C[C@H]3NC(=O)Cc1ccc(OP(=O)(O)O)cn1 [Compound 3408, 6-(2-oxo-2-(((2R,4R,4a5,5aR,6S,7S,8R,9S,9aR,10aS)-4a,7,9-trihydroxy-2-methyl-6,8-bis(methylamino)decahydro-2H-benzo[b]pyrano[2,3-e][1,4]dioxin-4-yl)amino)ethyl)pyridin-3-yl dihydrogen phosphate], the “In vivo conversion of prodrug to parent (in words)” value is reported as “rapidly converted in vivo to the parent drug form”.
